“And” between values parts separate entries of the source, which are not always exact repeats. Equal values may be shown once.
What was measured:
Cdk2(WT) [1] = molecular target: T1, Cdk2(WT) (Homo sapiens, UniProt P24941); assay: TdCD melting temperature of acrylamide-modified Cdk2; format: binding; parameters: made in house; host or cells: E. coli Tuner(DE3); conditions: compound-modified Cdk2(WT), n=3
Procedure: (§1) GSTBCdk2" and" GSTBcyclin" A2:! Harvested! cells! were! resuspended! in! 50! mM! HEPES! buffer! (pH7.5)! containing! 150! mM! NaCl,!
(§2) 10!mM!MgCl2,!2!mM!dithiothreitol!(DTT),!0.5!mg!mLR1!lysozyme,!and!0.01%!Triton!XR100!at!4!˚C!and!incubated!for!30!minutes.!
(§3) After! sonication! and! centrifugation! (40! min,! 16000! g),! the! supernatant! was! incubated! for! 1! h! with! glutathioneRSepharose!
(§4) beads,! washed! with! lysis! buffer! and! the! desired! protein! eluted! with! 10! mM! GSH! (100! mM! Tris,! pH! 8).! After! incubation! the! deR
(§5) sired! protein! was! cleaved! from! the! GST! tag! with! PreScission! protease! (100:1)! at! 4 °C! for! 4! hours,! the! cleaved! GST! tag! was!
(§6) removed! with! glutathioneRSepharose! beads.! Cdk2! was! concentrated! and! then! loaded! onto! a! Superdex! 75! (16/60)! column,!
(§7) eluting! with! 100! mM! phosphate! buffer! containing! 50! mM! DTT.! Purified! Cdk2! was! concentrated! to! 10! mg! mLR1!and! stored! at!–
(§8) 80! ˚C.! Cyclin! A2! was! purified! by! glutathioneRSepharose! affinity! as! described! above! with! the! following! amendments:! 100! mM!
(§9) MgCl2!was! added! after! GST! cleavage! to! minimise! protein! aggregation! and! gel! filtration! was! performed! with! 50! mM! HEPES!
buffer! (pH! 7.5)! containing! 150! mM! NaCl,! 100! mM! MgCl2,! 2! mM! DTT.! ! […]
labelling! reached! completion! (as! monitored! by! fluorescence! quench! assay! and/or! intact! protein! mass! spectrometry).! […]

Cdk2(WT) [2] = molecular target: T1, Cdk2(WT); assay: In vitro kinase assay (NADH-coupled) of ligand-conjugated pCdk2 with Cyclin A2; format: biochemical; parameters: GST (N, cleaved yes); made in house; host or cells: E. coli Tuner(DE3); conditions: for Kinase activity ± s.e.m relative to Cdk2(WT): n=3
Procedure: Hs!Cyclin!A2!F!5’![…]!
Hs!Cyclin!A2!R!5’![…]!
Sc!CAK1!R!5’!GAATTCttatgggcttttctaattcttgcaag!
as §1, §2, §3, §4, §5, §6, §7, §8, §9
buffer! (pH! 7.5)! containing! 150! mM! NaCl,! 100! mM! MgCl2,! 2! mM! DTT.! ! GSTRCAK1! was! also! purified! using! the! glutathioneR
Sepharose!affinity!workflow,!however!no!protease!or!gel!filtration!steps!were!performed!and!the!enzyme!was!used!crude.!
His6BCdk2:! Cell! lysis! was! performed! as! above! with! the! addition! of! 30! mM! imidiazole! to! the! lysis! buffer.! Following! sonication!
the! supernatant! was! incubated! for! 1! hour! with!nickel! sulfate! charged! NTA! agarose! beads,! washed! with! lysis!buffer! suppleR
mented!with!50!mM!imidiazole!and!then!His6RCdk2!eluted!with!lysis!buffer!containing!500!mM!imidiazole.!After!dialysis!against!
100! mM! phosphate! buffer! (pH! 8)! containing! 1! mM! DTT,! His6RCdk2! was! concentrated! and! loaded! onto! a! Superdex! 75! (16/60)!
column,!eluting!with!100!mM!phosphate!buffer!(pH!8)!without!reducing!agent."
I., Acrylamide, labelling, of, Cdk2, for, crystallography, TdCD, kinase, assays, and, intact%
protein,mass,spectrometry,
Cdk2! (10! µM)! was! reacted! with! acrylamide! ligands! at! 500! µM! in! 100! mM! phosphate! buffer! (pH! 8)! containing! 1%! DMSO,! until!
labelling! reached! completion! (as! monitored! by! fluorescence! quench! assay! and/or! intact! protein! mass! spectrometry).! Excess!
ligand! was! subsequently! removed! by! serial! dilution! and! concentration! (×5)! into! the!appropriate! buffer! using! Amicon! UltraR0.5!
centrifugal!filter!devices!(MW!cutRoff!=!10!kDa).!
J.,Intact%protein,mass,spectrometry, […]

Cdk2(WT) [3] = molecular target: T1, Cdk2(WT); assay: qIT thiol consumption assay with Cdk2(WT) (Cys177); format: binding; parameters: made in house; host or cells: E. coli Tuner(DE3); conditions: for k Cdk2(WT) (pseudo-first-order rate constant): compound 0.5 mM, Cdk2(WT) 5 μM, TCEP-agarose 2 % w/v
[4] = Cdk2(WT) completely modified with compound

Tm ± s.e.m (Cdk2(WT) [1]) | inhibition of kinase activity (Cdk2(WT) [2]; [4]) | Kinase activity ± s.e.m relative to Cdk2(WT) (Cdk2(WT) [2]; [4]) [%] | k Cdk2(WT) (pseudo-first-order rate constant) (Cdk2(WT) [3]) [h⁻¹] | REF Cdk2(WT) (rate enhancement factor = k protein/k GSH) (Cdk2(WT) [3]) | inhibition of kinase activity (in words) (Cdk2(WT) [2]; Cdk2(WT) modified with compound) | Structure (SMILES)
48.95 ± 0.25 ˚C | about 83% | 16.8±3.1 | 0.204 | 5.0 |  | C=CC(=O)N1CCN(C(=O)OC(C)(C)C)c2ccccc21 [Acrylamide 1]
50.56 ± 0.24 ˚C |  | 96.6±5.6 | 0.233 | 2.6 and 2.63 | no significant inhibition | C=CC(=O)N1CCN(C(=O)OC)c2ccccc21 [Acrylamide 2]

Reference: publication PMC5947712, “High‐Throughput Kinetic Analysis for Target‐Directed Covalent Ligand Discovery” (Angewandte Chemie (International Ed. in English), 2018)
